The molecules below were run on T-47D (assay: Caspase cascade activation (caspase activity ratio and potency), fluorogenic N-(Ac-DEVD)-N'-ethoxycarbonyl-R110 substrate). Details: T-47D (24 hr).
Assay type: cell-based, Human
Protocol: Human breast cancer cell lines T-47D and DLD-1 were grown according to media component mixtures designated by American Type Culture Collection+10% FCS (Invitrogen Corporation), in a 5% CO2−95% humidity incubator at 37° C. T-47D and DLD-1 cells were maintained at a cell density between 50 and 80% confluency at a cell density of 0.1 to 0.6×10^6 cells/mL. Cells were harvested at 600×g and resuspended at 0.65×10^6 cells/mL into appropriate media+10% FCS. An aliquot of 22.5 μL of cells was added to a well of a 384-well microtiter plate containing 2.5 μL of a 10% DMSO in RPMI-1640 media solution containing 0.16 to 100 μM of (2-chloro-quinazolin-4-yl)-(4-methoxy-phenyl)-methyl-amine or other test compound (0.016 to 10 μM final). An aliquot of 22.5 μL of cells was added to a well of a 384-well microtiter plate containing 2.5 μL of a 10% DMSO in RPMI-1640 media solution without test compound as the control sample. […] […] The samples were mixed by agitation and incubated at room temperature. Using a fluorescent plate reader (Model SPECTRAfluor Plus, Tecan), an initial reading (T=0) was made approximately 1-2 min after addition of the substrate solution, employing excitation at 485 nm and emission at 530 nm, to determine the background fluorescence of the control sample. After the 3 h incubation, the samples were read for fluorescence as above (T=3 h).
The Relative Fluorescence Unit values (RFU) were used to calculate the sample readings as follows: RFU(T=3h)−Control RFU(T=0)=Net RFU(T=3h)
The activity of caspase cascade activation was determined by the ratio of the net RFU value for (2-chloro-quinazolin-4-yl)-(4-methoxy-phenyl)-methyl-amine or other test compounds to that of control samples. The EC50 (nM) was determined by a sigmoidal dose-response calculation (Prism 3.0, GraphPad Software Inc.).

In order of falling “Caspase activity Ratio (net RFU of test compound to control)” value:
1. COc1ccc(N(C)c2nc(Cl)nc3cccc(Cl)c23)cc1 [Example 30, (2,5-Dichloro-quinazolin-4-yl)-(4-methoxy-phenyl)-methyl-amine]  10.6
2. CN(c1ccc(OC(F)(F)F)cc1)c1nc(Cl)nc2ccccc12 [Example 4, (2-Chloro-quinazolin-4-yl)-(4-trifluoromethoxy-phenyl)-methyl-amine]  10.3
3. COc1ccc(OC)c(N(C)c2nc(Cl)nc3ccccc23)c1 [Example 56, (2-Chloro-quinazolin-4-yl)-(2,5-dimethoxy-phenyl)-methyl-amine]  8.6
4. COc1ccc(N(C)c2nc(NCc3ccccc3)nc3ccccc23)cc1 [Example 42, (2-Benzylamino-quinazolin-4-yl)-(4-methoxyphenyl)-methylamine]  8.2
5. COc1ccc(N(C)c2nc(N(C)C)nc3ccccc23)cc1 [Example 38, (2-Dimethylamino-quinazolin-4-yl)-(4-methoxy-phenyl)-methyl-amine]  8.2
6. CN(c1ccc(Cl)cc1)c1nc(Cl)nc2ccccc12 [Example 3, (2-Chloro-quinazolin-4-yl)-(4-chloro-phenyl)-methyl-amine]  8.1
7. COc1ccc(N(C)c2nc(C)nc3ccccc23)cc1F [Example 26, (3-Fluoro-4-methoxy-phenyl)-(2-methyl-quinazolin-4-yl)-methyl-amine]  7.6
8. CSc1ccc(N(C)c2nc(C)nc3ccccc23)cc1 [Example 49, (4-Methylthio-phenyl)-(2-methyl-quinazolin-4-yl)-methylamine]  7.5
9. COc1ccc(N(C)c2nc(C)nc3ccccc23)c(F)c1 [Example 34, (2-Fluoro-4-methoxy-phenyl)-(2-methyl-quinazolin-4-yl)-methyl-amine]  6.9
10. Cc1nc(N(C)c2ccc(OC(F)F)cc2)c2ccccc2n1 [Example 25, (4-Difluoromethoxy-phenyl)-(2-methyl-quinazolin-4-yl)-methyl-amine]  6.7
11. CN(c1ccccc1)c1nc(Cl)nc2ccccc12 [Example 55, (2-Chloro-quinazolin-4-yl)-phenyl-methyl-amine]  6.7
12. Cc1ccc(N(C)c2nc(Cl)nc3ccccc23)cc1 [Example 2, (2-Chloro-quinazolin-4-yl)-(4-methyl-phenyl)-methyl-amine]  6.7
13. CCc1ccc(N(C)c2nc(C)nc3ccccc23)cc1 [Example 28, (4-Ethyl-phenyl)-(2-methyl-quinazolin-4-yl)-methyl-amine]  6.3
14. Cc1nc(N(C)c2ccc(OC(C)C)cc2)c2ccccc2n1 [Example 27, (4-Isopropoxy-phenyl)-(2-methyl-quinazolin-4-yl)-methyl-amine]  6.2
15. COc1ccc(N(C)c2nc(N3CCOCC3)nc3ccccc23)cc1 [Example 6, (4-Methoxy-phenyl)-methyl-(2-morpholin-4-yl-quinazolin-4-yl)-amine]  5.7
16. CCOc1ccc(N(C)c2nc(C)nc3ccccc23)cc1 [Example 36, (4-Ethoxy-phenyl)-(2-methyl-quinazolin-4-yl)-methyl-amine]  5.2
17. COc1ccc(N(C)c2nc(SC)nc3ccccc23)cc1 [Example 37, (2-Methylthio-quinazolin-4-yl)-(4-methoxy-phenyl)-methyl-amine]  5.2
18. COc1ccc(N(C)c2nc(C)nc3ccccc23)nc1 [Example 41, (5-Methoxy-pyridin-2-yl)-(2-methyl-quinazolin-4-yl)-methyl-amine]  5.0
19. COc1cccc(N(C)c2nc(Cl)nc3ccccc23)c1OC [Example 24, (2-Chloro-quinazolin-4-yl)-(2,3-dimethoxy-phenyl)-methyl-amine]  4.5
20. CN(C)c1ccc(N(C)c2nc(Cl)nc3ccccc23)cc1 [Example 45, (2-Chloro-quinazolin-4-yl)-(4-dimethylaminophenyl)-methylamine]  4.2
21. COc1ccc(N(C)c2nc(N(C)C)nc3ccc([N+](=O)[O-])cc23)cc1 [Example 46, (2-Dimethylamino-6-nitroquinazolin-4-yl)-(4-methoxyphenyl)-methylamine]  4.2

Same assay, conditions: T-47D (48 hr)

In order of rising “Caspase activity Ratio (net RFU of test compound to control)” value:
1. COc1ccc(N(C)c2nc(Cl)nc3ccc(C)cc23)cc1 [Example 13, (2-Chloro-6-methyl-quinazolin-4-yl)-(4-methoxy-phenyl)-methyl-amine]  4.9
2. COc1ccc(N(C)c2nc(Cl)nc3cc(C)ccc23)cc1 [Example 60, (2-Chloro-7-methyl-quinazolin-4-yl)-(4-methoxy-phenyl)-methyl-amine]  6.2
3. COc1ccc(N(C)c2nc(Cl)nc3ccc(Cl)cc23)cc1 [Example 16, (2,6-Dichloro-quinazolin-4-yl)-(4-methoxy-phenyl)-methyl-amine]  6.5
4. COc1ccc(N(C)c2nc(Cl)nc3c(C)cccc23)cc1 [Example 15, (2-Chloro-8-methyl-quinazolin-4-yl)-(4-methoxy-phenyl)-methyl-amine]  7.1
5. COc1ccc(N(C)c2nc(Cl)nc3c(Cl)cccc23)cc1 [Example 29, (2,8-Dichloro-quinazolin-4-yl)-(4-methoxy-phenyl)-methyl-amine]  7.8
6. COc1ccc(N(C)c2nc(CF)nc3ccccc23)cc1 [Example 12, (2-Fluoromethyl-quinazolin-4-yl)-(4-methoxy-phenyl)-methyl-amine]  9.0
7. CCOc1ccc(N(C)c2nc(Cl)nc3ccccc23)cc1 [Example 32, (2-Chloro-quinazolin-4-yl)-(4-ethoxy-phenyl)-methylamine]  9.0
8. CCCOc1ccc(N(C)c2nc(Cl)nc3ccccc23)cc1 [Example 20, (2-Chloro-quinazolin-4-yl)-(4-propoxy-phenyl)-methyl-amine]  11.3
9. COc1ccc(N(C)c2nc(N3CCOCC3)nc3ccccc23)cc1 [Example 6, (4-Methoxy-phenyl)-methyl-(2-morpholin-4-yl-quinazolin-4-yl)-amine]  11.5
10. COc1ccc(N(C)c2nc(Cl)nc3ccccc23)c(OC)c1 [Example 9, (2-Chloro-quinazolin-4-yl)-(2,4-dimethoxy-phenyl)-methyl-amine]  12.4
11. CN(c1ccc(O)cc1)c1nc(Cl)nc2ccccc12 [Example 58, (2-Chloro-quinazolin-4-yl)-(4-hydroxyphenyl)-methylamine]  12.5
12. CN(c1ccc2c(c1)OCO2)c1nc(Cl)nc2ccccc12 [Example 18, (2-Chloro-quinazolin-4-yl)-(3,4-methylenedioxyphenyl)-methyl-amine]  12.5
13. COc1ccc(N(C)c2nc(Cl)nc3cc(Cl)ccc23)cc1 [Example 59, (2,7-Dichloro-quinazolin-4-yl)-(4-methoxy-phenyl)-methyl-amine]  12.7
14. COc1ccc(N(C)c2nc(NO)nc3ccccc23)cc1 [Example 5, N^2-Hydroxyl-N^4-(4-methoxy-phenyl)-N^4-methyl-quinazoline-2,4-diamine]  12.8
15. COc1ccc(N(C)c2nc(Cl)nc3ccccc23)cc1OC [Example 19, (2-Chloro-quinazolin-4-yl)-(3,4-dimethoxy-phenyl)-methyl-amine]  13.1
16. COc1ccccc1N(C)c1nc(Cl)nc2ccccc12 [Example 57, (2-Chloro-quinazolin-4-yl)-(2-methoxy-phenyl)-methyl-amine]  14.3
17. COc1ccc(OC)c(N(C)c2nc(Cl)nc3ccccc23)c1 [Example 56, (2-Chloro-quinazolin-4-yl)-(2,5-dimethoxy-phenyl)-methyl-amine]  14.6
18. COc1cccc(N(C)c2nc(Cl)nc3ccccc23)c1 [Example 10, (2-Chloro-quinazolin-4-yl)-(3-methoxy-phenyl)-methyl-amine]  14.7

— patent US8258145B2, “Method of treating brain cancer” (Myrexis, Inc., priority 2005, dated 2012)
